{
  "source": "patent US9840470B2",
  "about": "“Targeting GLI proteins in human cancer by small molecules” (The Regents of the University of California, priority 2013, dated 2017)",
  "key": {"mesothelioma MS-1": {"system": "mesothelioma MS-1", "assay": "In vivo efficacy, mouse xenograft model (mesothelioma MS-1)", "settings": "50 mg/kg body weight i.p. daily for 14 days, from ten days after inoculation", "protocol": "(§1) The administered compounds were tested in vivo in the mouse xenograft model bearing human cancer cells. Briefly, female athymic nude mice strain NCRNU-M (5-10 weeks old, 20-25 grams in weight; Taconic, Germantown, N.Y.) was maintained in pathogen-free conditions. Three human cancer cell lines: NSCLC A549, melanoma MelJuso, and mesothelioma MS-1 were used. Five or ten mice were used in each group and injected s.c. with 3×10^6 cancer cells in the dorsal area in a volume of 100 μl. After inoculation, human cancer cells were allowed to grow in mice for 10-13 days to become visible tumor nodules. Animals were then injected with a compound of the embodiments at a dose of 50 mg/kg body weight (1 mg/mouse per day). Vehicle alone was used as control. The compounds and controls were adjusted in 40 ul volume for i.p. injection in the abdomens of the mice. Injections were performed daily around the same time for 14 days. […] Tumor size was measured every three to four days, and tumor volumes were calculated using width (x) and length (y) (x^2y/2, where x<y). Throughout this period, general toxicity of the treatments was also monitored by measuring body weight of the mice. […]\nIn vivo efficacy study of Compounds 1 and 4 were performed using a Mouse Xenograft Model (Mesothelioma MS-1). […] Tumor sizes was measured twice weekly until the completion of the experiments. […]"}, "[1]": {"assay": "Additional toxicity study: body weight at different doses", "assay_type": "in vivo, mouse", "settings": "i.p. 25, 50, and 100 mg/kg body weight for 6 consecutive days", "protocol": "Each dosing group contained 3 mice. The body weight of mice was measured using a scale. Results are the means±SD (error bars).\nAs preliminary in vivo toxicity study of Compounds 1, 2, 4, and 6, it was examined if there were changes of leukocyte population and loss of body weight in the mice after the treatment. At the completion of the in vivo studies as described herein, leukocytes (WBC: white blood cell, NE: neutrophil, LY: lymphocyte, MO: monocyte, EO: eosinophil, BA: basophil) from each animal from all treatment groups were collected and leukocyte population was counted through a blood cell counter. Body weights of control groups (n=10) and the treated group (n=10) were measured using a scale during the course of drug administration. […] In an additional toxicity study, effect of different doses of compounds 4 and 6 on the body weight of mice was examined. The compounds were i.p. injected in the abdomens at 3 different doses: 25, 50, and 100 mg/kg body weight to mice (3 mice per dosing group) for 6 consecutive days."}, "Wnt signaling pathway": {"system": "Wnt signaling pathway", "assay": "Quantitative RT-PCR of canonical Wnt pathway genes in xenograft tumors", "assay_type": "in vivo, mouse", "settings": "Melanoma tumor, pooled tumor from two mice, compared to controls", "protocol": "Total RNA was isolated using Qiagen RNeasy Mini Kit (Valencia, Calif.). Hybridization probes and primers (Table 1) were purchased from Applied Biosystems (ABI, Foster City, Calif.). cDNA synthesis and Taqman® PCR were performed according to the manufactures' protocols. The gene expression was assayed in triplicate in ABI 7300 Real-time PCR System. Samples were normalized to their housekeeping gene GAPDH and then calculated by using 2^−dct method.\nTo examine whether Compounds 1, 2, 4, and 6 suppressed tumor growth through inhibition of the Wnt signaling pathway in vivo, expression of the key components and direct target genes of the Wnt pathway (e.g. Wnt2, Axin2, EGFR, and Cyclin D1) were analyzed by quantitative real-time RT-PCR using total RNA isolated from the xenograft tumors. GAPDH served as a control. This RT-PCR analysis was performed using a “pooled” tumor from two randomly selected mice of each group with reasonable size tumors. […] The results are shown in FIG. 4, where C is control and V is vehicle."}, "[2]": {"system": "human MM cell lines (mesothelioma cells)", "assay": "Combination treatment with chemotherapies, MTS proliferation assay, mesothelioma cells", "assay_type": "cell-based", "settings": "72 hours, Combination Index", "excerpt": "Another assay for determining the number of viable cells in proliferation or cytotoxicity assays is the MTS assay, a colorimetric method. MTS assay reagents are commercially available (Promega Corp., Madison, Wis.). The reagent contains a tetrazolium compound [3-(4,5-dimethylthiazol-2-yl)-5-(3-carboxymethoxyphenyl)-2-(4-sulfophenyl)-2H-tetrazolium, inner salt; MTS] and an electron coupling reagent (phenazine ethosulfate; PES). PES has enhanced chemical stability, which allows it to be combined with MTS to form a stable solution. The MTS tetrazolium compound (Owen's reagent) is bioreduced by cells into a colored formazan product that is soluble in tissue culture medium. This conversion may be accomplished by NADPH or NADH produced by dehydrogenase enzymes in metabolically active cells. The quantity of formazan product as measured by the absorbance at 490 nm is directly proportional to the number of living cells in culture. Because the MTS formazan product is soluble in tissue culture medium, this assay requires fewer steps than procedures that use tetrazolium compounds such as MTT. The formazan product of MTT reduction is a crystalline precipitate that requires an additional step in the procedure to dissolve the crystals before recording absorbance readings at 570 nm.\nCombination treatments of the Compounds with several chemotherapies: erlotinib (Tarceva®), PI3K inhibitor LY294002, TGFβ inhibitor SB431542, and pemetrexed (Alimta®) were performed in human NSCLC and MM cell lines (FIGS. 12-17). In all experiments, NSCLC and MM cell lines were treated with different doses of each compound or combination for 72 hours, and MTS assays were performed to determine the cell proliferations. Combination Index (CI), calculated by CalcuSyn software (Biosoft, Cambridge, UK), was applied to describe the effect of the combination effects of two compounds, where CI<1 indicates Synergism, CI=1 indicates Additive effects, and CI>1 indicates Antagonism. Student's t-tests were applied for statistical analysis."}, "NSCLC A549": {"system": "NSCLC A549", "assay": "In vivo efficacy, mouse xenograft model (lung cancer A549)", "settings": "50 mg/kg i.p. daily for 14 days, then 50 mg/kg daily for 1x7 days; tumors weighed 43 days after inoculation", "protocol": "as §1\nIn vivo efficacy study of Compounds 1 and 4 in Mouse Xenograft Model (NSCLC A549) was examined. […] 43 days after the initial tumor inoculation, tumors were dissected from the mice of each group and their weights were measured using a scale. […]"}},
  "data": [
    {"molecule": "CCCC1C(C(=O)NCCCC(C)(C)CO)C(c2ccc(F)cc2)=NN1c1ccccc1", "note": "(centres unmarked) [Compound 4, 3-(4-fluoro-phenyl)-1-phenyl-5-propyl-4,5-dihydro-1H-pyrazole-4-carboxylic acid (5-hydroxy-4,4-dimethyl-pentyl)-amide]", "values": [
      {"measurement": "tumor weight compared to the control group", "setting": "mesothelioma MS-1", "value": "decreased"},
      {"measurement": "loss of body weight", "setting": "[1]", "value": "no noticeable loss of the body weight"},
      {"measurement": "expression of the key indicator of the canonical Wnt activation", "setting": "Wnt signaling pathway", "value": "significantly down-regulated"},
      {"measurement": "combination effect with erlotinib (Tarceva)", "setting": "[2]", "value": "synergy"},
      {"measurement": "tumor weight compared to the control group", "setting": "NSCLC A549", "value": "decreased"}
    ]}
  ]
}
